According to patent US5885815A, “Candida isoleucyl-tRNA synthetase proteins, nucleic acids and strains comprising same” (priority 1996, dated 1999):

Assays:
[1] = target: T1, Candida albicans isoleucyl-tRNA synthetase, N-terminal GST-fusion protein (GST-IleRS) encoded by pQB83CAIRS-1, produced in S. cerevisiae, SEQ ID NO:2 (Candida albicans, UniProt Q59RI1, S1065L/S390L); test: Aminoacylation (charging) assay for Km determination, purified GST-IleRS fusion; assay type: biochemical; settings: isoleucine varied; 1.09 nM active enzyme; crude yeast tRNA
T1 construct: thrombin-cleavable), pQB83CAIRS-1, expressed in S. cerevisiae QBY3; CTG codons 390 and 1065 read as Leu by host
T1 sequence (Q59RI1 whole entry S390L/N691S/E755D/I1040V/S1065L, the tested form may be a part): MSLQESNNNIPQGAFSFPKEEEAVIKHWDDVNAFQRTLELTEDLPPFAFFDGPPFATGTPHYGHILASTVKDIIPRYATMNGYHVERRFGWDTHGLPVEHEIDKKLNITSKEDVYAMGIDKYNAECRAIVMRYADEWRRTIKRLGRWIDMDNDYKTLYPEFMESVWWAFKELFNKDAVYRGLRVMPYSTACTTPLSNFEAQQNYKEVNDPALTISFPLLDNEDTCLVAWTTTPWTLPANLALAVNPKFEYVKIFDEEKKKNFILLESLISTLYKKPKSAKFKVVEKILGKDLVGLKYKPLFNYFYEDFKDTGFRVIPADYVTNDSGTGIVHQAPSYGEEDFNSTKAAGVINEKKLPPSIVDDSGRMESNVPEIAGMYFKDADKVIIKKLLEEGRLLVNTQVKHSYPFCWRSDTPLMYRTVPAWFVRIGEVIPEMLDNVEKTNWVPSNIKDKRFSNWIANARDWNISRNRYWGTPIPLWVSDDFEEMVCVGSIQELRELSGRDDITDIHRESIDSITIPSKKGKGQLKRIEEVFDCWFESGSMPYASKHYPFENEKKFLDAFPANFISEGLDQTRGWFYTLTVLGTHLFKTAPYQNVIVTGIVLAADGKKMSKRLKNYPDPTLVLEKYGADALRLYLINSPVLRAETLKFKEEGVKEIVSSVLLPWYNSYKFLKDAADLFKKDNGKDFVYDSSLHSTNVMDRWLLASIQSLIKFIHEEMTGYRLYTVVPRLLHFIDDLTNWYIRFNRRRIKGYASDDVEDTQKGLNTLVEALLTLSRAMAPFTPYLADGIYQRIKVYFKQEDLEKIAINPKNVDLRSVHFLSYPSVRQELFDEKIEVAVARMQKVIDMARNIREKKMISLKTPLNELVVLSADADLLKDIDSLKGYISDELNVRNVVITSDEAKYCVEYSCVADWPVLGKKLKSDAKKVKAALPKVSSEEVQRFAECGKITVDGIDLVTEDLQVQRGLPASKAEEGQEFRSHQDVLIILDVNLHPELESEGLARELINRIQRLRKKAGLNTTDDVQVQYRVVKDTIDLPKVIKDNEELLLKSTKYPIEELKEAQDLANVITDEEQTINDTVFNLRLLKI
Method: (§1) The purified recombinant GST-fusion protein and the product after thrombin cleavage of the GST-fusion protein were tested for their charging activities. Charging assays were based on the procedure of Shepard et al. (Proc. Natl. Acad. Sci. USA 89:9964-68 (1992)). Unless otherwise stated, a typical 50 μl reaction was carried out at 25° C. and contained 4 mM ATP, 20 μM of [^3 H]isoleucine, 90 μM crude tRNA from E. coli (Sigma) or brewer's yeast (Boehringer Mannheim), 10 μM KF, 50 mM HEPES, pH 7.5, 10 mM MgCl2, 10 mM DTT or β-mercaptoethanol and 30 mM NH4 Cl. Purified enzyme was diluted in 100 mM HEPES, pH 7.5, 20 mM DTT and 0.1 mg/ml BSA.
(§2) Reactions were started by the addition of enzyme to the reaction mixture preincubated at 25° C. At various time intervals, 10 μl of the reaction mix was spotted on 3MM Whatman filter circles which were then immersed in ice cold 5% TCA. After three washes in ice cold 5% TCA (at least 15 minutes each), the filters were rinsed once with cold ethanol, once with ether, and air dried. The radioactivity was quantitated by counting the filters in a table top scintillation counter (Packard) in the presence of scintillation fluid (Betafluor; National Diagnostics).
(§3) For determination of Km, various concentrations of one substrate (ATP, amino acid, or tRNA) were used while the other two substrates were kept at saturating concentrations. To test the effect of temperature, the reactions were incubated at 25°, 30°, 37° and 42° C. The Bradford assay was used for determination of total protein. The proportion of active enzyme was calculated by monitoring the formation of the amino acid-adenylate:enzyme complex using a nitrocellulose filter binding assay in the presence of various dilutions of enzyme preparation. A 50 μl reaction contained 1 mM ATP, 1 unit of pyrophosphatase, 50 mM Tris-HCl, pH 5.8, 10 mM MgCl2, 30 mM KCl, 20 mM DTT, 40 μM of radioactively labeled amino acid, and diluted enzyme. […]

CC[C@H](C)[C@H](N)C(=O)O = test: as above; assay type: biochemical, Candida albicans; settings: other: crude yeast tRNA, 2 to 32 μM [3H]isoleucine, 25° C., spread printed in b267: ±4.8 μM
Method: as §1, §2, §3

CC[C@H](C)[C@H](N)C(=O)O [isoleucine] gave a Vmax [1] of 4 ± 0.5 nM/s and a kcat [1] of 3.7±0.5 per sec.

Molecule “Candida albicans isoleucyl-tRNA synthetase, N-terminal GST-fusion protein (GST-IleRS) encoded by pQB83CAIRS-1, produced in S. cerevisiae, SEQ ID NO:2 (Candida albicans SC5314; S1065L/S390L)” has a Km (CC[C@H](C)[C@H](N)C(=O)O) of 17 µM.
